Test in all cases: DTP human tumour cell line panel, 48 h
Assay [1] relates to TK-10 renal.
The test system of assay [2] is SF-295 CNS.
Assay [3] has as its system M14 melanoma.
For assay [4], the system named is T-47D breast.
The test system of assay [5] is MCF7 breast.
In assay [6] the test system is RXF 393 renal.
Assay [7] concerns MDA-MB-231 breast.
For assay [8], the system named is U251 CNS.
Assay [9] concerns MOLT-4 leukemia.
Assay [10] deals with MALME-3M melanoma.

Data on 14 compounds can be found in PubChem BioAssay (NCI).

The structures appear in SMILES notation.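 48-hour exposure; five concentrations; linearly interpolated endpoints. Definition used: TGI = concentration required for complete inhibition of growth.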

In general, TGI refers to the concentration at which net growth stops. Low values mean greater sensitivity of the cells, high ones lower sensitivity of the cells.

Regarding `COC(=O)N1CC[C@@H]2CCC=C(c3cccc4c3OCO4)[C@@H]21`, the TGI in assay [1], in assay [2], in [3], in assay [4], in assay [5] and in [6] was > 100 µM throughout. Besides, the TGI in assay [7], in assay [8], in assay [9] and in assay [10] was > 100 µM in each case.
Turning to `CC1=NN(c2nc(N)nc(CS(C)(=O)=O)n2)C(C)(C)C1`, the TGI in [1], in assay [2], in assay [3], in [4], in assay [5] and in assay [6] was > 100 µM throughout. Moreover, the TGI in assay [7], in [8] and in assay [9] was > 100 µM each time.
Take `Nc1[nH]c(=O)nc2sc3c(c12)CCCC3`: the TGI in [1], in assay [3], in [4], in [5], in assay [6] and in assay [7] was > 100 µM throughout. Besides, the TGI in [8], in assay [9] and in assay [10] was > 100 µM throughout.
On to `COc1ccc(-c2cc(-c3ccccc3)n(C3OC(COC(C)=O)C(OC(C)=O)C(OC(C)=O)C3OC(C)=O)c(=S)c2C#N)cc1` (stereo not drawn), for which the TGI in assay [1] is 40.7 µM; in [2], 17.9 µM; in assay [3], 20.5 µM; in assay [4], 25.7 µM; in [5], > 100 µM; in assay [6], 23.2 µM. Besides, the TGI is 16.4 µM in [7], 18.7 µM in assay [8], > 100 µM in assay [9] and 23.2 µM in assay [10].
On to `COc1cc(/C=C2\C(=O)N(c3cccc(Cl)c3)C(c3ccccc3)S2(=O)=O)cc(OC)c1OC` (stereo not drawn), for which the TGI in assay [1], in assay [2], in [3], in assay [4], in [5] and in assay [6] was > 100 µM in each case. The TGI in [7] is > 100 µM; in assay [8], > 100 µM; in assay [9] it was 98.8 µM; in assay [10], > 100 µM.
`CC(C)(C)OC(=O)N1C(C2=COc3ccccc3O2)=COc2ccccc21`: the TGI was > 100 µM in assay [1]; 83.5 µM in [2]; > 100 µM in assay [3]; 50.4 µM in assay [4]; 60.2 µM in assay [5]; 22.5 µM in assay [6]. Also, the TGI in assay [7] was 69.6 µM; in assay [8], > 100 µM; in assay [9], 54 µM; in [10] it was 58.1 µM.
As for `COc1ccc(C2CCc3nc4nc(N)nc(N)c4cc3C2)cc1` (stereo not drawn), the TGI in [1] is 24.9 µM; in [2], 89.6 µM; in assay [3], > 100 µM; in assay [4] it was 44.7 µM; in assay [5], 28.8 µM; in assay [6], 37.2 µM. Besides, the TGI in [7] is 42 µM; in [8], 29.4 µM; in [9], 65.3 µM; in assay [10], > 100 µM.
As for `COc1cc(Cn2c3c(c4c(CN(C)C)c(O)ccc42)C(=O)c2ccccc2C3=O)cc(OC)c1`, the TGI was 74.2 µM in [1]; 44 µM in [2]; 32.6 µM in [3]; > 100 µM in assay [4]; 29.4 µM in assay [5]; 40.7 µM in assay [7]. Besides, the total growth inhibition concentration (TGI) in [8] amounted to 36.8 µM; in assay [9], 88.9 µM; in assay [10], 76.2 µM.
Consider `O=C(N=Nc1ccc([N+](=O)[O-])cc1)NNc1ccc([N+](=O)[O-])cc1`, for which the TGI in [1] came out at 53.6 µM; in assay [3], 31 µM; in assay [4] it was 25.2 µM; in assay [5], 22.9 µM; in assay [7] it was 76.2 µM; in assay [8] it was 59.7 µM. Moreover, the results for the TGI in assay [9] and in assay [10] were 40.8 µM and 53.1 µM, respectively.
With `c1ccc(Cc2cccc3cc(-c4ccc(-c5ccccc5)cc4)[nH]c23)cc1`, the TGI in [1], in [2], in assay [3], in assay [4], in assay [5] and in assay [7] was > 100 µM in each case. The values for the TGI in assay [8], in assay [9] and in assay [10] were > 100 µM, > 100 µM and 54 µM, respectively.
For the compound `Clc1cc2nc(C3CCCO3)[nH]c2cc1Cl` (stereo not drawn), the total growth inhibition concentration (TGI) in assay [1], in assay [2], in assay [3], in assay [4], in [5] and in [6] was > 100 µM throughout. In addition, the TGI in [7], in assay [8], in [9] and in assay [10] was > 100 µM in each case.
On to `CCCS(=O)(=O)O`, for which the TGI in [1], in assay [2], in assay [3], in [4], in [5] and in [6] was > 100 µM throughout. Moreover, the TGI in assay [7], in assay [8], in assay [9] and in assay [10] was > 100 µM throughout.
`COc1cc(N=C(N)N=C(N)N)c2ncccc2c1`: the TGI in assay [1], in [2], in assay [3], in assay [4], in assay [5] and in [6] was > 100 µM throughout. For the same compound, the TGI in assay [7], in assay [8] and in [10] was > 100 µM each time.
Regarding `CCOC(=O)C(Cc1ccc2c(c1)CCC2)(Cc1ccc2c(c1)CCC2)C(=O)OCC`, the TGI in [1] is > 100 µM; in [2], > 100 µM; in assay [3], > 100 µM; in [4] it was > 100 µM; in assay [5], > 100 µM; in assay [6], 89.9 µM. In addition, the TGI is > 100 µM in assay [7], > 100 µM in assay [8], 78.4 µM in assay [9] and 89.2 µM in [10].
